Laboratory results as given in paper PMC7753147, “High-throughput determination of protein affinities using unmodified peptide libraries in nanomolar scale” (iScience, 2020).

Key:
[1] = system: gephE; test: µSPOT peptide microarray binding assay with recombinant gephE
[2] = system: native geph; test: µSPOT peptide microarray binding assay with native geph from mouse brain lysate
Experimental: Preparation of Mouse Tissue Lysates
Whole mouse brains were obtained from C57BL/6J mice at >4 weeks of age and 80 immediately flash frozen in liquid N2. Tissue of mRFP-gephyrin knock-in animals of 1 year of age (provided by Christian Specht, IBENS, Paris) was processed the same way. Before lysis, whole mouse brains were weighted and cut into four pieces along the coronal and sagittal axis. For preparation of one lysate, two diagonally opposite pieces were transferred into a 1.5 mL reaction tube (Sarsted). Lysis was carried out on ice in 400 µL RIPA lysis buffer (150 mM 85 NaCl, 50 mM Tris-HCl (pH=8), 1% Nonident P-40 substitute, 0.5% DOC, 0.1% SDS (all v/v)), to which Ethylenediaminetetraacetic acid (5 mM end concentration) and 1 mini tablet of ROCHE complete protease inhibitor per 10 mL was added immediately before use, by hand crushing the brain material with a hand pestle in a 1.5 mL reaction tube. Lysis was completed by 1 min sonification on ice with a Sartorius Labsonic M Sonificator at 20% amplitude with 90 care to avoid heating the suspensions. Finally, Lysates were centrifuged for 15 min at 17,200×g and 4 °C. The SN was subsequently collected, transferred to a new 1.5 mL reaction tube, flash frozen in liquid N2 and stored at -80 °C until use.
95 µSPOT slides were blocked by incubation with 2.5 mL 2% (w/v) IGG free bovine serum

[3] = system: FL-geph; test: µSPOT peptide microarray binding assay with full-length geph
[4] = µSPOT peptide microarray, GlyRβ full positional scan, recombinant gephE, intensity normalised to wild-type sequence DLRSNDFSIVGSLPR (=1)
[5] = µSPOT peptide microarray, GlyRβ full positional scan, native geph from mouse brain lysate, intensity normalised to wild-type sequence DLRSNDFSIVGSLPR (=1)
[6] = µSPOT peptide microarray, GlyRβ full positional scan, intensity normalised to wild-type sequence DLRSNDFSIVGSLPR (=1)
[7] = µSPOT full positional scan of GlyRβ 15-mer DLRSNDFSIVGSLPR, intensity normalised to wild-type sequence (= 1)
[8] = µSPOT full positional scan of GlyRβ 15-mer DLRSNDFSIVGSLPR, native geph, intensity normalised to wild-type sequence (= 1)

Row | Sequence | gephE Binding Intensity [norm.] [1, 4] [norm.] | Native geph Binding Intensity [norm.] [2, 5] [norm.] | Fl-geph Binding Intensity [norm.] [3, 6] [norm.] | gephE Binding Intensity [norm.] [1, 7] [norm.] | Native geph Binding Intensity [norm.] [2, 8] [norm.] | Fl-geph Binding Intensity [norm.] [3, 7] [norm.]
1 | DLRSNDFFIVGSLPR [GlyRβ_Full_Positional_Scan_147, GlyR β 414-428 variant S421F] | 0.53 | 0.18 | 0.64 | – | – | –
2 | DLRSNDDSIVGSLPR [GlyRβ_Full_Positional_Scan_130, GlyR β 414-428 variant F420D] | 0.45 | 0.26 | 0.38 | – | – | –
3 | DLRSNDESIVGSLPR [GlyRβ_Full_Positional_Scan_131, GlyR β 414-428 variant F420E] | 0.42 | 0.2 | 0.32 | – | – | –
4 | DLKSNDFSIVGSLPR [GlyRβ_Full_Positional_Scan_054] | 1.01 | 1.21 | 1.24 | – | – | –
5 | DLRSNDKSIVGSLPR [GlyRβ_Full_Positional_Scan_134, GlyR β 414-428 variant F420K] | 0.53 | 0.3 | 0.61 | – | – | –
6 | DWRSNDFSIVGSLPR [GlyRβ_Full_Positional_Scan_028] | 0.8 | 0.6 | 0.82 | – | – | –
7 | DLRSTDFSIVGSLPR [GlyRβ_Full_Positional_Scan_096] | 1.06 | 0.73 | 0.78 | – | – | –
8 | DLASNDFSIVGSLPR [GlyRβ_Full_Positional_Scan_041] | 0.95 | 1.3 | 1.13 | – | – | –
9 | GLRSNDFSIVGSLPR [GlyRβ_Full_Positional_Scan_002] | 1.01 | 0.75 | 1.03 | – | – | –
10 | DLRSNDFSIVGSRPR [GlyRβ_Full_Positional_Scan_252] | – | – | – | 0.84 | 0.38 | 1.07
11 | DLRCNDFSIVGSLPR [GlyRβ_Full_Positional_Scan_077] | 0.99 | 0.77 | 0.65 | – | – | –
12 | DLRSNWFSIVGSLPR [GlyRβ_Full_Positional_Scan_108] | 0.79 | 0.32 | 0.65 | – | – | –
13 | DLRSNCFSIVGSLPR [GlyRβ_Full_Positional_Scan_117] | 0.81 | 0.64 | 0.8 | – | – | –
14 | DLRSNDFSIHGSLPR [GlyRβ_Full_Positional_Scan_193, GlyR β 414-428 variant V423H] | 0.32 | 0.2 | 0.46 | – | – | –
15 | DDRSNDFSIVGSLPR [GlyRβ_Full_Positional_Scan_030] | 1.07 | 0.9 | 1.26 | – | – | –
16 | DLDSNDFSIVGSLPR [GlyRβ_Full_Positional_Scan_050] | 1.09 | 1.45 | 1.38 | – | – | –
17 | DLRSVDFSIVGSLPR [GlyRβ_Full_Positional_Scan_086] | 0.84 | 0.72 | 0.83 | – | – | –
18 | DLRSNDFSIVQSLPR [GlyRβ_Full_Positional_Scan_220, GlyR β 414-428 variant G424Q] | – | – | – | 0.43 | 0.29 | 0.45
19 | DLRSNDFSIVGSLGR [GlyRβ_Full_Positional_Scan_262] | – | – | – | 0.6 | 0.44 | 0.82
20 | DLRSNDFSIVGMLPR [GlyRβ_Full_Positional_Scan_238] | – | – | – | 0.77 | 0.89 | 0.88
21 | DLRSNDFPIVGSLPR [GlyRβ_Full_Positional_Scan_145, GlyR β 414-428 variant S421P] | 0.48 | 0.25 | 0.66 | – | – | –
22 | MLRSNDFSIVGSLPR [GlyRβ_Full_Positional_Scan_018] | 1.13 | 1.2 | 1.04 | – | – | –

Row | Sequence | gephE Binding Intensity [norm.] [1, 4] [norm.] | Native geph Binding Intensity [norm.] [2, 5] [norm.] | Fl-geph Binding Intensity [norm.] [3, 6] [norm.] | gephE Binding Intensity [norm.] [1, 7] [norm.] | Native geph Binding Intensity [norm.] [2, 8] [norm.] | Fl-geph Binding Intensity [norm.] [3, 7] [norm.]
23 | DVRSNDFSIVGSLPR [GlyRβ_Full_Positional_Scan_026] | 1.03 | 0.98 | 1.05 | – | – | –
24 | DLRSWDFSIVGSLPR [GlyRβ_Full_Positional_Scan_088] | 0.86 | 0.47 | 0.66 | – | – | –
25 | DLRSNDFSIVGCLPR [GlyRβ_Full_Positional_Scan_237] | – | – | – | 0.63 | 0.48 | 0.83
26 | DLRSNDFSIVGSLSR [GlyRβ_Full_Positional_Scan_275] | – | – | – | 0.72 | 0.5 | 0.92
27 | DLRSNDFSIVGSLPG [GlyRβ_Full_Positional_Scan_282] | – | – | – | 0.88 | 0.84 | 0.92
28 | DLRSNHFSIVGSLPR [GlyRβ_Full_Positional_Scan_113] | 0.86 | 0.48 | 0.85 | – | – | –
29 | DLRSNDVSIVGSLPR [GlyRβ_Full_Positional_Scan_126, GlyR β 414-428 variant F420V] | 0.52 | 0.38 | 0.76 | – | – | –
30 | DLRSNDFSIVGSLPV [GlyRβ_Full_Positional_Scan_286] | – | – | – | 1.06 | 0.96 | 0.97
31 | DQRSNDFSIVGSLPR [GlyRβ_Full_Positional_Scan_040] | 0.96 | 1.16 | 0.92 | – | – | –
32 | DLRSNDFSIVGPLPR [GlyRβ_Full_Positional_Scan_225] | – | – | – | 0.51 | 0.25 | 0.7
33 | DLRSNDFSIVGSWPR [GlyRβ_Full_Positional_Scan_248] | – | – | – | 0.7 | 0.52 | 0.93
34 | DLRSNDFSIVGSQPR [GlyRβ_Full_Positional_Scan_260] | – | – | – | 0.76 | 0.8 | 0.97
35 | DLRSNSFSIVGSLPR [GlyRβ_Full_Positional_Scan_115] | 0.89 | 0.75 | 0.92 | – | – | –
36 | DLRSNDFSIVGNLPR [GlyRβ_Full_Positional_Scan_239] | – | – | – | 0.74 | 1.16 | 1.17
37 | DLRSQDFSIVGSLPR [GlyRβ_Full_Positional_Scan_100] | 0.96 | 0.97 | 1.01 | – | – | –
38 | DLRSNDTSIVGSLPR [GlyRβ_Full_Positional_Scan_136, GlyR β 414-428 variant F420T] | 0.47 | 0.36 | 0.51 | – | – | –
39 | DLRSNDFSHVGSLPR [GlyRβ_Full_Positional_Scan_173, GlyR β 414-428 variant I422H] | 0.41 | 0.21 | 0.55 | – | – | –
40 | DLRGNDFSIVGSLPR [GlyRβ_Full_Positional_Scan_062] | 0.99 | 1.16 | 0.88 | – | – | –
41 | DLRSHDFSIVGSLPR [GlyRβ_Full_Positional_Scan_093] | 0.9 | 0.72 | 0.75 | – | – | –
42 | DLRFNDFSIVGSLPR [GlyRβ_Full_Positional_Scan_067] | 0.92 | 0.98 | 0.92 | – | – | –
43 | DLRSEDFSIVGSLPR [GlyRβ_Full_Positional_Scan_091] | 0.96 | 0.96 | 1 | – | – | –
44 | DLRSNDFSIVGALPR [GlyRβ_Full_Positional_Scan_221] | – | – | – | 0.77 | 0.99 | 1.04
